What was measured:
[1] = tested on: HCT-116; assay: Antiproliferative activity against human HCT-116 cells assessed as reduction in cell viability measured after 72 hrs; type: functional, cell-based; conditions: HCT-116, 72 h
[2] = tested on: SW480; assay: Antiproliferative activity against human SW480 cells assessed as reduction in cell viability measured after 72 hrs; type: functional, cell-based; conditions: SW480, 72 h
[3] = tested on: A549; assay: Antiproliferative activity against human A549 cells assessed as reduction in cell viability measured after 72 hrs; type: functional, cell-based; conditions: A549, 72 h
[4] = tested on: MV4-11; assay: Induction of cell cycle arrest in human MV4-11 cells assessed as accumulation of cells at G2/M phase at 0.2 uM incubated fo 36 hrs by propidium iodide staining based flow cytometry (reference value: 9.5%); type: functional
[5] = molecular target: Cyclin-dependent kinase 7 (Homo sapiens) (UniProt P50613); assay: Inhibition of wild type full length human CDK7 (1 to 344 esidues) expessed in mammalian expression system at 1 uM by KINOMEscan analysis
Cyclin-dependent kinase 7 (Homo sapiens), sequence (P50613 whole entry): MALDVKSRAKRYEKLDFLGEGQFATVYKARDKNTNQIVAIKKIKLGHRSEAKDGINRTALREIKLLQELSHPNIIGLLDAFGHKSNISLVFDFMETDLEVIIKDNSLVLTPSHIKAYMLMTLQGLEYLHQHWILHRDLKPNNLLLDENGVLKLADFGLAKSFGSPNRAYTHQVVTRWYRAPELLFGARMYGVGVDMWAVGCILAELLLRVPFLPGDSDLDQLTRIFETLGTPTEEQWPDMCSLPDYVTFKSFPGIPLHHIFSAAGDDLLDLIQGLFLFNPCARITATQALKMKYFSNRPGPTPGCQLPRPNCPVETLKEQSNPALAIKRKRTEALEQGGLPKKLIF

[6] = molecular target: CDK9/cyclin T1 (Homo sapiens) (UniProt O60563+P50750); assay: Inhibition of CDK9/CyclinT1 (unknown origin) at 100 nM by ADP-Glo assay relative to control; type: protein-complex assay
[7] = Inhibition of CDK1/CyclinA2 (unknown origin) by ADP-Glo assay; parameters: species or system Homo sapiens
[8] = molecular target: Cyclin-dependent kinase 9 (Homo sapiens) (UniProt P50750); assay: Inhibition of CDK9 in human MV4-11 cells assessed as reduction in RNA polymerase 2 phosphorylation at Ser2 residue incubated for 12 hrs by western blot analysis; type: cell-based; conditions: dose 0.1-4 µM
Cyclin-dependent kinase 9 (Homo sapiens), sequence (P50750 whole entry): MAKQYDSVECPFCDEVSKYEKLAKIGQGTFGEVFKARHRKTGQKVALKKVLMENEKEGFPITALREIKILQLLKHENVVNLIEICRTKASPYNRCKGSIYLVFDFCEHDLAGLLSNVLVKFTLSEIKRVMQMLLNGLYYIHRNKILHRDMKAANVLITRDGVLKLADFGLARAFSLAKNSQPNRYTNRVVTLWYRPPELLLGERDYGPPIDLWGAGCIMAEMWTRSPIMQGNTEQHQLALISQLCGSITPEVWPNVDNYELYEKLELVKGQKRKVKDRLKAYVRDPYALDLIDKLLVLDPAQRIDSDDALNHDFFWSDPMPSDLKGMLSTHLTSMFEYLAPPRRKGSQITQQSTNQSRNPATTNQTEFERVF

[9] = tested on: MV4-11; assay: Induction of apoptosis in human MV4-11 cells assessed as late apoptotic cells at 1 uM incubated for 24 hrs by AnnexinV-FITC/PI staining based flow cytometry (reference value: 5.21%); type: functional
[10] = tested on: MV4-11; assay: Antiproliferative activity against human MV4-11 cells assessed as reduction in cell viability measured after 72 hrs; type: functional, cell-based; conditions: MV4-11, 72 h
[11] = tested on: MV4-11; assay: Induction of apoptosis in human MV4-11 cells assessed as increase in cleaved PARP-1 protein expression incubated for 24 hrs by western blot analysis; type: functional, cell-based; conditions: dose 0.1-4 µM
[12] = tested on: MV4-11; assay: Induction of apoptosis in human MV4-11 cells assessed as early apoptotic cells at 0.5 uM incubated for 24 hrs by AnnexinV-FITC/PI staining based flow cytometry (reference value: 1.42%); type: functional
[13] = Metabolic stability of the compound in rat plasma at 10 uM measured for 60 mins by LC-MS/MS analysis; type: ADME, cell-free; conditions: 1 h
[14] = tested on: MV4-11; assay: Induction of apoptosis in human MV4-11 cells assessed as late apoptotic cells at 4 uM incubated for 24 hrs by AnnexinV-FITC/PI staining based flow cytometry (reference value: 5.21%); type: functional
[15] = tested on: MV4-11; assay: Induction of cell cycle arrest in human MV4-11 cells assessed as accumulation of cells at G0/G1 phase at 0.2 uM incubated fo 36 hrs by propidium iodide staining based flow cytometry (reference value: 64%); type: functional
[16] = molecular target: NUAK family SNF1-like kinase 2 (Homo sapiens) (UniProt Q9H093); assay: Inhibition of wild type partial length human SNARK (22 to 333 residues) expressed in mammalian expression system at 1 uM by KINOMEscan analysis
NUAK family SNF1-like kinase 2 (Homo sapiens), sequence (Q9H093 whole entry, the tested form may be a part): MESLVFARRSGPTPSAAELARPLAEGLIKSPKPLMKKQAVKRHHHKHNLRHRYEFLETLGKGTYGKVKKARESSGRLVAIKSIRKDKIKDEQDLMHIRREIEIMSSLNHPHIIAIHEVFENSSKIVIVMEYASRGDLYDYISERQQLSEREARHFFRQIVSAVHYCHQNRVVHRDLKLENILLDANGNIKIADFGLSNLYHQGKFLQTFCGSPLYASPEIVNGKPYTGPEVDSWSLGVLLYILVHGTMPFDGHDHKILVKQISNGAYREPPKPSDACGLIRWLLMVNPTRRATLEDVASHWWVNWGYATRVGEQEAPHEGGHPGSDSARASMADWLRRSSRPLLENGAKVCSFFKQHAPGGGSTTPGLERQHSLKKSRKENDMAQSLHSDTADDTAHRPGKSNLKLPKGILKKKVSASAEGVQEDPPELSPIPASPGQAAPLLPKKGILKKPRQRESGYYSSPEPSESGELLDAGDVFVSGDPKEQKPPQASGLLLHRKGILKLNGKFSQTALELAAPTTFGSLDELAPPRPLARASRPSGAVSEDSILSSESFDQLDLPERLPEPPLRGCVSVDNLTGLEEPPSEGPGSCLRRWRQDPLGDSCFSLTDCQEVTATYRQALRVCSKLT

[17] = tested on: MV4-11; assay: Induction of apoptosis in human MV4-11 cells assessed as viable cells at 4 uM incubated for 24 hrs by AnnexinV-FITC/PI staining based flow cytometry (reference value: 93.4%); type: functional; conditions: read-out: Activity
[18] = tested on: MV4-11; assay: Induction of apoptosis in human MV4-11 cells assessed as early apoptotic cells at 2 uM incubated for 24 hrs by AnnexinV-FITC/PI staining based flow cytometry (reference value: 1.42%); type: functional
[19] = tested on: MV4-11; assay: Induction of apoptosis in human MV4-11 cells assessed as viable cells at 0.5 uM incubated for 24 hrs by AnnexinV-FITC/PI staining based flow cytometry (reference value: 93.4%); type: functional; conditions: read-out: Activity
[20] = molecular target: Myosin-IIIb (Homo sapiens) (UniProt Q8WXR4); assay: Inhibition of wild type partial length human MYO3B (1 to 357 residues) expressed in bacterial expression system at 1 uM by KINOMEscan analysis
Myosin-IIIb (Homo sapiens), sequence (Q8WXR4 whole entry, the tested form may be a part): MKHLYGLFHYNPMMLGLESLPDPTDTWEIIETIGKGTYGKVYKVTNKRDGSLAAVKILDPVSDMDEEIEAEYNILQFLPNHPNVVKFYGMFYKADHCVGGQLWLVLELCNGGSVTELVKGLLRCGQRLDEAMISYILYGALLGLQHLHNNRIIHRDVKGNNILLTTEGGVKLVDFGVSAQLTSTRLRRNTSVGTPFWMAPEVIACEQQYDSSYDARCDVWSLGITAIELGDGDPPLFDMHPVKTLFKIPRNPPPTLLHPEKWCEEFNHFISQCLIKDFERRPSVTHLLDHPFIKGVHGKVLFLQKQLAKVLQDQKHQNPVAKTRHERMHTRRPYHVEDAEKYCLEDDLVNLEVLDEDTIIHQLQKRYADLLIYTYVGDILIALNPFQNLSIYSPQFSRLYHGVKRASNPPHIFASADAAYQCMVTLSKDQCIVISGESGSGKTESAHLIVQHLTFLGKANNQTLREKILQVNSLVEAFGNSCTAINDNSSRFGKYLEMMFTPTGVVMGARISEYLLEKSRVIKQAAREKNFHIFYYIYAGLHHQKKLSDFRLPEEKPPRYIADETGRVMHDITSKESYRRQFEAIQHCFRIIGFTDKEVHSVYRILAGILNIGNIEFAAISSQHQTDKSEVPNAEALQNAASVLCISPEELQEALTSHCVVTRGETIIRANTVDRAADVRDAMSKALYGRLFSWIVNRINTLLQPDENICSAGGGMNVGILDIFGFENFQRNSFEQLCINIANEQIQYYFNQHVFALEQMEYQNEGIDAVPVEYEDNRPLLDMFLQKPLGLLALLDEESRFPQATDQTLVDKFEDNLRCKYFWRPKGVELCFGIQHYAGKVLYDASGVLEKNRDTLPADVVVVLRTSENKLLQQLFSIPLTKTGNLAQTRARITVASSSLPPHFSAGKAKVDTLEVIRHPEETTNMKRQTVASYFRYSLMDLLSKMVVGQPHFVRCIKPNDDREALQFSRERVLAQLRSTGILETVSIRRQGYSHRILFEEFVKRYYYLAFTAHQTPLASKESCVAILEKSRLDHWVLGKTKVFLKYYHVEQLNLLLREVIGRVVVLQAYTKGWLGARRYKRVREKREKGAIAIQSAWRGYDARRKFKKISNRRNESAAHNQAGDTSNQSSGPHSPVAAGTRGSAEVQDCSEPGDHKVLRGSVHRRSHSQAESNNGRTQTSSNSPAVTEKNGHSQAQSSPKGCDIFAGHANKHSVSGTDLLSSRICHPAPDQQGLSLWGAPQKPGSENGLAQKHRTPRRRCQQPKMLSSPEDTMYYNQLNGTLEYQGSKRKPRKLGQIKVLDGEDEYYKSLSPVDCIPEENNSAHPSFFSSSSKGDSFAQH

[21] = tested on: MV4-11; assay: Induction of cell cycle arrest in human MV4-11 cells assessed as accumulation of cells at G0/G1 phase at 0.8 uM incubated fo 36 hrs by propidium iodide staining based flow cytometry (reference value: 64%); type: functional
[22] = molecular target: Mitogen-activated protein kinase kinase kinase 7 (Homo sapiens) (UniProt O43318); assay: Inhibition of wild type partial length human TAK1 (1 to 303 residues) expressed in mammalian expression system at 1 uM by KINOMEscan analysis
Mitogen-activated protein kinase kinase kinase 7 (Homo sapiens), sequence (O43318 whole entry, the tested form may be a part): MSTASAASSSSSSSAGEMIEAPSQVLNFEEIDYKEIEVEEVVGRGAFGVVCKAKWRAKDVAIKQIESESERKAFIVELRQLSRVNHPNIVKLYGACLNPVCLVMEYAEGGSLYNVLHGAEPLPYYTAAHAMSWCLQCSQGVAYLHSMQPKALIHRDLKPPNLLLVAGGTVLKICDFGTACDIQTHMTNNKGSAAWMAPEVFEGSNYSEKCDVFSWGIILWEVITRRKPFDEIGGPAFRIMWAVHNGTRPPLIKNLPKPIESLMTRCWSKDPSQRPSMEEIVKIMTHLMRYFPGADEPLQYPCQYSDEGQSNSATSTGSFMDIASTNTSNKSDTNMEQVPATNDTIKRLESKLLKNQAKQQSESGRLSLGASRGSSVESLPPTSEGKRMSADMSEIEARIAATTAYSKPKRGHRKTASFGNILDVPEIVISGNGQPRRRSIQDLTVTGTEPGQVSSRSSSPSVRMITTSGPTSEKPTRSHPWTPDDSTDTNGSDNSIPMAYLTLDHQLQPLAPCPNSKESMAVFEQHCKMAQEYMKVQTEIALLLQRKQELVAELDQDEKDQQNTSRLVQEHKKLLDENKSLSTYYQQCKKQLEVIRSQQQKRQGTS

[23] = Toxicity in BALB/c mouse xenografted with human MV4-11 cells assessed as effect on body weight at 7.5 to 15 mg/kg, iv qd; type: organism-based; conditions: in vivo, dose 7.5-15 mg/kg
[24] = tested on: MV4-11; assay: Induction of cell cycle arrest in human MV4-11 cells assessed as accumulation of cells at G2/M phase at 0.1 uM incubated fo 36 hrs by propidium iodide staining based flow cytometry (reference value: 9.5%); type: functional
[25] = tested on: MV4-11; assay: Induction of apoptosis in human MV4-11 cells assessed as necrotic cells at 0.5 uM incubated for 24 hrs by AnnexinV-FITC/PI staining based flow cytometry (reference value: 0%); type: functional
[26] = Metabolic stability of the compound in rat liver microsomes at 10 uM measured for 60 mins in presence of NADPH by LC-MS/MS analysis; type: ADME, Microsome; conditions: 1 h
[27] = tested on: MV4-11; assay: Downregulation of cyclin T1 protein expression in human MV4-11 cells incubated for 12 hrs by western blot analysis; type: functional, cell-based; conditions: dose 0.1-4 µM
[28] = tested on: MV4-11; assay: Antitumor activity against human MV4-11 cells xenografted in BALB/c mouse assessed as inhibition of tumor growth at 15 mg/kg, iv qd and measured every 2 days; type: functional; conditions: MV4-11, 48 h, read-out: TGI
[29] = tested on: BT-549; assay: Antiproliferative activity against human BT-549 cells assessed as reduction in cell viability measured after 72 hrs; type: functional, cell-based; conditions: BT-549, 72 h
[30] = tested on: HT-29; assay: Antiproliferative activity against human HT-29 cells assessed as reduction in cell viability measured after 72 hrs; type: functional, cell-based; conditions: HT-29, 72 h
[31] = Toxicity in BALB/c mouse xenografted with human MV4-11 cells assessed as animal's mortality at 7.5 to 15 mg/kg, iv qd; type: organism-based; conditions: in vivo, dose 7.5-15 mg/kg
[32] = tested on: HepG2; assay: Antiproliferative activity against human HepG2 cells assessed as reduction in cell viability measured after 72 hrs; type: functional, cell-based; conditions: HepG2, 72 h
[33] = molecular target: Mitogen-activated protein kinase kinase kinase kinase 2 (Homo sapiens) (UniProt Q12851); assay: Inhibition of wild type partial length human MAP4K2 (1 to 318 residues) expressed in mammalian expression system at 1 uM by KINOMEscan analysis
Mitogen-activated protein kinase kinase kinase kinase 2 (Homo sapiens), sequence (Q12851 whole entry, the tested form may be a part): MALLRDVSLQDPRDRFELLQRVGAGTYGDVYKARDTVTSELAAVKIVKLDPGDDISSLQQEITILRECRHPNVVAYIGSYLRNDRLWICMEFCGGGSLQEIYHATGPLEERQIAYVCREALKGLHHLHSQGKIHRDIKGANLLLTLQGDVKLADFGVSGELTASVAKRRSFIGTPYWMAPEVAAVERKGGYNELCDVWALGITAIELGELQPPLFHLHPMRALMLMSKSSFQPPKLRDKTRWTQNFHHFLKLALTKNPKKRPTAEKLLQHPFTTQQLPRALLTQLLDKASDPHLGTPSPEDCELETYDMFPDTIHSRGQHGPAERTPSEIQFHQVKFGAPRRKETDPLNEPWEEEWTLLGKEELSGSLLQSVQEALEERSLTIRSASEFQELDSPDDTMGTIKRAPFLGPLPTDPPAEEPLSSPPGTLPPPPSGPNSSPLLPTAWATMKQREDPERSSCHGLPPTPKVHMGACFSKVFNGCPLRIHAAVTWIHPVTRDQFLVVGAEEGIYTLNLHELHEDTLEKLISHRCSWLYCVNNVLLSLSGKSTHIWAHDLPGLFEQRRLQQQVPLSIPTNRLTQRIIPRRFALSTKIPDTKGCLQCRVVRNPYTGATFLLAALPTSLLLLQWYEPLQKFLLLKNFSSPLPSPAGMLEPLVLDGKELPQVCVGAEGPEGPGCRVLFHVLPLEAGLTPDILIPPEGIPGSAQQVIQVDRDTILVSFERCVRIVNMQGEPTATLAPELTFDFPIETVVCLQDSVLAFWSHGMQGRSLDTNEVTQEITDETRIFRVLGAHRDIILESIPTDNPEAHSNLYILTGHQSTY

[34] = Cytotoxicity against human L02 cells assessed as reduction in cell viability measured after 72 hrs; type: toxicity, cell-based
[35] = tested on: HL-60; assay: Antiproliferative activity against human HL-60 cells assessed as reduction in cell viability measured after 72 hrs; type: functional, cell-based; conditions: HL-60, 72 h
[36] = tested on: MOLM-13; assay: Antiproliferative activity against human MOLM-13 cells assessed as reduction in cell viability measured after 72 hrs; type: functional, cell-based; conditions: MOLM-13, 72 h

`COc1cc(O)c2c(=O)cc(-c3ccc(N4CCN(C)CC4)cc3)oc2c1C1=CCN(C)CC1` gave an IC50 [1] of 20 nM, an IC50 [2] of 3450 nM and an IC50 [3] of 700 nM. For the same compound, the Activity [4] was 7.1%, the inhibition [5] was 4.8% and the inhibition [6] was 98.9%. For the same compound, the IC50 [7] was 4180 nM, the inhibition [8] was “Dose-Dependent Effect” and the Activity [9] was 20.9%. The IC50 [10] was 60 nM, the Activity [11] was “Dose-Dependent Effect” and the Activity [12] was 1.96%. For the same compound, the Stability [13] was “Stable”, the Activity [14] was 21.3% and the Activity [15] was 73.9%. It also gave an inhibition [16] of 6.2%, a viability at 4 µM [17] of 7.98% and an Activity [18] of 67%. For the same compound, the viability at 0.5 µM [19] was 87.8%, the inhibition [20] was 0% and the Activity [21] was 84.2%. The inhibition [22] was 9.5%, the Activity [23] was “Non-Toxic” and the Activity [24] was 8.5%. For the same compound, the Activity [25] was 0%, the Stability [26] was “Stable” and the inhibition [27] was “Dose-Dependent Effect”. For the same compound, the inhibition in vivo at 15 mg/kg [28] was 65%, the IC50 [29] was 210 nM and the IC50 [30] was 1060 nM. The Activity [31] was “Non-Toxic”, the IC50 [32] was 410 nM and the inhibition [33] was 9.9%. For the same compound, the IC50 at 72 h [34] was 10600 nM, the IC50 [35] was 180 nM and the IC50 [36] was 160 nM.

Source: ChEMBL document CHEMBL5634084, “Design and optimization of selective and potent CDK9 inhibitors with flavonoid scaffold for the treatment of acute myeloid leukemia” (Eur J Med Chem, 2023)
